± gives the standard deviation of the averaged measurements.
Tests used:
Test in all cases: level (log10 ratio to DMSO vehicle control); higher = higher biomarker level / cell amount than vehicle control
Settings in all cases: in DMSO
[1] = compound: COC(=O)CCC(F)(F)C(F)(F)C(F)(F)C(F)(F)F [Methyl 2H,2H,3H,3H-perfluoroheptanoate]
Experimental: (§1)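 BioMAP Diversity Plus panel of 12 human primary cell co-culture systems (3C, 4H, LPS, SAg, BT, BF4T, BE3C, CASM3C, HDF3CGF, KF3CT, MyoF, Mphg). Compounds were added 1 h before stimulation and left for 24 h (MyoF 48 h; BT 72 h for soluble read-outs or 6 d for IgG). Biomarkers were read by ELISA, cytotoxicity by SRB, PBMC viability and proliferation by Alamar Blue. Each well value was divided by the mean of 8 DMSO control wells on the same plate and log10 transformed; duplicate blinded samples were tested at 4 concentrations.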

[2] = compound: FC(F)C(F)(F)COCC1CO1 [((2,2,3,3-Tetrafluoropropoxy)methyl)oxirane]
Experimental: as §1

[3] = compound: C=CC(=O)OCC(F)(F)C(F)(F)C(F)(F)C(F)(F)C(F)(F)C(F)(F)C(F)(F)F [1H,1H-Perfluorooctyl acrylate]
Experimental: as §1

[4] = compound: O=C(O)C(F)(F)C(F)(F)C(F)(F)C(F)(F)C(F)(F)C(F)(F)C(F)(F)C(F)F [9-H-Perfluorononanoic acid]
Experimental: as §1

[5] = compound: FC(F)(F)C(F)(C(F)(F)F)C(F)(F)C(F)(F)CC1CO1 [3-(Perfluoro-3-methylbutyl)-1,2-propenoxide]
Experimental: as §1

Perfluoro-1-iodohexane = compound: FC(F)(F)C(F)(F)C(F)(F)C(F)(F)C(F)(F)C(F)(F)I [Perfluoro-1-iodohexane]
Experimental: as §1

Perfluorodecanoic acid = compound: O=C(O)C(F)(F)C(F)(F)C(F)(F)C(F)(F)C(F)(F)C(F)(F)C(F)(F)C(F)(F)C(F)(F)F [Perfluorodecanoic acid]
Experimental: as §1

| Test System | level (log10) ([1]; 6700 nM) | level (log10) ([1]; 20000 nM) | level (log10) ([1]; 60000 nM) | level (log10) ([2]; 6700 nM) | level (log10) ([2]; 20000 nM) | level (log10) ([2]; 60000 nM) | level (log10) ([3]; 6700 nM) | level (log10) ([3]; 20000 nM) | level (log10) ([3]; 60000 nM) | level (log10) ([4]; 6700 nM) | level (log10) ([4]; 20000 nM) | level (log10) ([4]; 60000 nM) | level (log10) ([5]; 6700 nM) | level (log10) ([5]; 20000 nM) | level (log10) (Perfluoro-1-iodohexane; 6700 nM) | level (log10) (Perfluoro-1-iodohexane; 20000 nM) | level (log10) (Perfluoro-1-iodohexane; 60000 nM) | level (log10) (Perfluorodecanoic acid; 6700 nM) | level (log10) (Perfluorodecanoic acid; 20000 nM) |
| --- | --- | --- | --- | --- | --- | --- | --- | --- | --- | --- | --- | --- | --- | --- | --- | --- | --- | --- | --- |
| LPS:CD106/VCAM-1 | -0.0265 ± 0.011 | -0.0265 ± 0.00071 | -0.0085 ± 0.021 | 0.0015 ± 0.036 | -0.024 ± 0.0071 | -0.032 ± 0.042 | -0.0045 ± 0.011 | -0.0165 ± 0.0021 | -0.0145 ± 0.0078 | -0.0165 ± 0.013 | -0.006 ± 0.0028 | 0.0075 ± 0.033 | -0.0085 ± 0.019 | 0.015 ± 0.013 | -0.031 ± 0.0057 | -0.0145 ± 0.018 | -0.029 ± 0.0028 | 0.0015 ± 0.0035 | -0.001 ± 0.0014 |
| LPS:CD141/Thrombomodulin | -0.0375 ± 0.037 | -0.0325 ± 0.0092 | -0.0255 ± 0.0078 | 0.0055 ± 0.016 | -0.003 ± 0.03 | -0.049 ± 0.013 | -0.0365 ± 0.0021 | -0.052 ± 0.013 | -0.052 ± 0.011 | 0.015 ± 0.017 | 0.018 ± 0.0057 | 0.027 ± 0.03 | 0.0355 ± 0.0035 | 0.019 ± 0.034 | -0.0175 ± 0.0035 | -0.0095 ± 0.025 | -0.0105 ± 0.0092 | 0.0035 ± 0.00071 | 0.002 ± 0.0057 |
| LPS:CD142/Tissue Factor | 0.0015 ± 0.067 | 0.0175 ± 0.054 | -0.019 ± 0.0085 | 0.013 ± 0.024 | 0.006 ± 0.0057 | -0.019 ± 0.023 | 0.0425 ± 0.018 | 0.051 ± 0.014 | 0.0525 ± 0.016 | -0.03 ± 0.021 | -0.024 ± 0.011 | 0.0785 ± 0.039 | -0.017 ± 0.088 | 0.031 ± 0.096 | -0.018 ± 0.038 | 0.0045 ± 0.0021 | 0.0045 ± 0.011 | 0.018 ± 0.0085 | -0.011 ± 0.0028 |
| LPS:CXCL8/IL-8 | -0.0075 ± 0.023 | -0.016 ± 0.0071 | 0.022 ± 0.016 | -0.035 ± 0.038 | -0.024 ± 0.031 | 0.004 ± 0.0014 | 0.004 ± 0.0042 | 0.0185 ± 0.0064 | 0.013 ± 0.016 | 0.046 ± 0.047 | 0.102 ± 0.021 | 0.17 ± 0.033 | 0.0325 ± 0.043 | 0.045 ± 0.072 | -0.0045 ± 0.015 | 0.005 | 0.015 ± 0.017 | 0.027 ± 0.0071 | 0.0115 ± 0.0064 |
| LPS:IL-1alpha | -0.0265 ± 0.015 | -0.0185 ± 0.018 | 0.0235 ± 0.016 | -0.046 ± 0.0042 | -0.026 ± 0.021 | 0.022 ± 0.024 | 0.0165 ± 0.018 | 0.033 ± 0.023 | 0.042 ± 0.025 | 0.0095 ± 0.042 | -0.0105 ± 0.00071 | -0.014 ± 0.0099 | -0.0205 ± 0.011 | 0.0155 ± 0.0092 | -0.048 ± 0.035 | -0.042 ± 0.021 | -0.004 ± 0.0014 | 0.0275 ± 0.016 | -0.0125 ± 0.0092 |
| LPS:M-CSF | -0.0005 ± 0.0035 | 0.002 ± 0.011 | 0.0105 ± 0.043 | 0.0075 ± 0.011 | 0.009 ± 0.017 | -0.0155 ± 0.036 | -0.001 ± 0.017 | 0.0045 ± 0.023 | 0.009 ± 0.0085 | -0.025 ± 0.04 | -0.0085 ± 0.016 | 0.0525 ± 0.044 | -0.0005 ± 0.019 | 0.021 ± 0.038 | 0.0135 ± 0.019 | -0.0055 ± 0.05 | -0.003 ± 0.025 | -0.0015 ± 0.015 | -0.0045 ± 0.018 |
| LPS:SRB | 0.006 ± 0.023 | 0.001 ± 0.011 | -0.0045 ± 0.011 | -0.0145 ± 0.0035 | -0.005 | -0.0105 ± 0.0092 | -0.006 ± 0.0028 | -0.0095 ± 0.0078 | -0.012 ± 0.016 | -0.005 ± 0.016 | -0.01 ± 0.014 | -0.022 ± 0.0099 | 0 ± 0.0042 | -0.0035 ± 0.005 | -0.0025 ± 0.0064 | -0.0055 ± 0.0064 | -0.0085 ± 0.00071 | 0.01 ± 0.0071 | 0.003 ± 0.0042 |
| LPS:sPGE2 | 0.014 ± 0.033 | 0.0395 ± 0.0078 | -0.0125 ± 0.04 | -0.0355 ± 0.032 | -0.022 ± 0.011 | -0.037 ± 0.014 | -0.045 ± 0.017 | -0.0805 ± 0.0035 | -0.109 ± 0.027 | 0.005 ± 0.0057 | -0.0205 ± 0.0092 | -0.096 ± 0.0042 | -0.012 ± 0.023 | -0.0095 ± 0.054 | 0.0235 ± 0.0092 | 0.0015 ± 0.00071 | -0.038 ± 0.018 | -0.017 ± 0.025 | -0.052 ± 0.0071 |

— the supplement of paper PMC10331698
